Assay results reported in US20050282743A1, “Molecular interactions in cells” (Arbor Vita Corporation, priority 2001, published 2005).
Ends that are not written are not given here. Peptide text beside a SMILES is read from it. * marks the point of attachment. Biotin = O=C1N[C@H]2[C@H](CS[C@H]2CCCCC(=O)*)N1

molecular target: T1, PDZ protein (GST-PDZ fusion) (Homo sapiens, UniProt Q14CM0); assay: G' assay (10 uM PL peptide), results of TABLE 7 and TABLE 12; assay type: binding; conditions: PDZ KIAA0316, PDZ Domain 1
T1 construct: made in house; host or cells: E. coli (DH5alpha, BL21 or JM109)
T1 sequence (Q14CM0 1-1322): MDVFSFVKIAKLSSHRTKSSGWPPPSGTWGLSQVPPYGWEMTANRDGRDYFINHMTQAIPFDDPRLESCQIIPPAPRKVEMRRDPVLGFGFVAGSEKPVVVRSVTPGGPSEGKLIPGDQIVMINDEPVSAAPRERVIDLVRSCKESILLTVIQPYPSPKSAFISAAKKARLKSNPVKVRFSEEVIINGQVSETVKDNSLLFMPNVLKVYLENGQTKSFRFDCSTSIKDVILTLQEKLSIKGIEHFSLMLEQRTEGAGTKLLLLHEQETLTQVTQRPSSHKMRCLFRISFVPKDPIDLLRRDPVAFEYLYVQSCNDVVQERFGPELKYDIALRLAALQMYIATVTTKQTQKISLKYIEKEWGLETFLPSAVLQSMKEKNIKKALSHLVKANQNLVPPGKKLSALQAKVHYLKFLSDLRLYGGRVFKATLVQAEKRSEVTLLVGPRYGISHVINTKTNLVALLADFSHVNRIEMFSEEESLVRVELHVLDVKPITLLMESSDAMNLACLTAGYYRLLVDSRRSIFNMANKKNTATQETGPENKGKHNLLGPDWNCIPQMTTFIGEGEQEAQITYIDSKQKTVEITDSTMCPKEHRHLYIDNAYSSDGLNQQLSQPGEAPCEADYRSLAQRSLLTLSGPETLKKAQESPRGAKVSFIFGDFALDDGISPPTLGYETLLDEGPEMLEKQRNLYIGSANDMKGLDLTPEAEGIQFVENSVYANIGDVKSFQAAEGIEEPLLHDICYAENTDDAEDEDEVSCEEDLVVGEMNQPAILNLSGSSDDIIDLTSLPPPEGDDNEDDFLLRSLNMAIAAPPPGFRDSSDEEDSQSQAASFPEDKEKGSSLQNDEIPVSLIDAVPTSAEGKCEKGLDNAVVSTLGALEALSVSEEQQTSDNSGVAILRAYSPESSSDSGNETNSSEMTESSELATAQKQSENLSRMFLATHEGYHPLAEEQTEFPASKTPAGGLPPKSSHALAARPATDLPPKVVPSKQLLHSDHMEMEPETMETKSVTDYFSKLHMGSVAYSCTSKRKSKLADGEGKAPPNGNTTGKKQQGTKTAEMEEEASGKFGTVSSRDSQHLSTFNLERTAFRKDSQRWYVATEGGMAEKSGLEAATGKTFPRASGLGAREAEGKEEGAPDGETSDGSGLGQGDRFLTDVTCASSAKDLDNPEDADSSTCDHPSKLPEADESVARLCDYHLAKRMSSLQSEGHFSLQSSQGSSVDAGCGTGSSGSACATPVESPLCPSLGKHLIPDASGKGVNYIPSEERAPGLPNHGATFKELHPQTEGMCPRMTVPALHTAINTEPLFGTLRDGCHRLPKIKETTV
Procedure, shortened: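 Same steps as the G-zero format, apart from a peptide concentration of 10 uM in place of 20 uM in step 2. Amino-terminally biotinylated PL peptides bind GST-PDZ fusions, and retained peptide is quantified by 450 nm absorbance.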

| Compound | Classification |
| --- | --- |
| CC(C)C[C@H](NC(=O)[C@H](C)NC(=O)[C@@H](NC(=O)[C@H](CCC(=O)O)NC(=O)[C@H](CCCNC(=N)N)NC(=O)[C@H](CCCNC(=N)N)NC(=O)CNC(=O)[C@H](CCC(N)=O)NC(=O)[C@H](CC(C)C)NC(=O)[C@H](CCCNC(=N)N)NC(=O)CNC(=O)CNC(=O)[C@H](CCCNC(=N)N)NC(=O)[C@H](C)NC(=O)[C@H](CO)NC(=O)[C@H](CCCNC(=N)N)NC(=O)CNC(=O)CNC(=O)[C@H](C)NC(=O)[C@H](C)NC(=O)CCCC[C@@H]1SC[C@@H]2NC(=O)N[C@@H]21)[C@@H](C)O)C(=O)O [HPV E6 33 (modified)] (Biotin-AAGGRSARGGRLQGRRETAL-OH; C-terminus assumed) | 2 (A450 nm 1-2) |
| CC(C)C[C@H](NC(=O)[C@H](CC(=O)O)NC(=O)[C@H](CO)NC(=O)[C@H](CCC(=O)O)NC(=O)CNC(=O)[C@H](Cc1ccc(O)cc1)NC(=O)[C@H](CC(C)C)NC(=O)[C@H](C)NC(=O)[C@H](CO)NC(=O)[C@H](CO)NC(=O)[C@H](Cc1ccccc1)NC(=O)[C@H](C)NC(=O)[C@H](C)NC(=O)[C@H](Cc1ccc(O)cc1)NC(=O)[C@H](CC(=O)O)NC(=O)[C@H](CC(C)C)NC(=O)[C@H](C)NC(=O)CNC(=O)[C@@H]1CCCN1C(=O)[C@@H](NC(=O)CCCC[C@@H]1SC[C@@H]2NC(=O)N[C@@H]21)C(C)C)C(=O)O [a-actinin 2] (Biotin-VPGALDYAAFSSALYGESDL-OH; C-terminus assumed) | 1 (A450 nm 0-1) |
| CC[C@H](C)[C@H](NC(=O)[C@H](CO)NC(=O)[C@H](CCC(=O)O)NC(=O)[C@H](Cc1ccc(O)cc1)NC(=O)[C@H](CC(=O)O)NC(=O)[C@H](CC(N)=O)NC(=O)[C@H](CCC(=O)O)NC(=O)[C@H](CCCCN)NC(=O)CCCC[C@@H]1SC[C@@H]2NC(=O)N[C@@H]21)C(=O)N[C@@H](CO)C(=O)N[C@@H](CC(=O)O)C(=O)N[C@@H](CC(C)C)C(=O)N[C@@H](CCC(N)=O)C(=O)N[C@@H](CCC(N)=O)C(=O)NCC(=O)N[C@@H](CCCNC(=N)N)C(=O)N[C@@H](CC(=O)O)C(=O)N[C@H](C(=O)N[C@H](C(=O)N[C@@H](CCCNC(=N)N)C(=O)N[C@@H](CC(C)C)C(=O)O)[C@@H](C)O)[C@@H](C)CC [PAG] (Biotin-KENDYESISDLQQGRDITRL-OH; C-terminus assumed) | 1 (A450 nm 0-1) |
| KTMPAATYRLLTGQEQPVYL (Biotin-KTMPAATYRLLTGQEQPVYL) [MINT-3] | 2 (A450 nm 1-2) |
| CC(C)C[C@H](NC(=O)[C@H](C)NC(=O)[C@@H](NC(=O)[C@@H](NC(=O)[C@H](Cc1c[nH]cn1)NC(=O)[C@H](CC(C)C)NC(=O)CNC(=O)[C@H](CCC(N)=O)NC(=O)CNC(=O)CNC(=O)[C@H](C)NC(=O)[C@H](C)NC(=O)[C@H](CCCNC(=N)N)NC(=O)[C@H](C)NC(=O)[C@H](CO)NC(=O)[C@H](CC(=O)O)NC(=O)[C@H](CC(=O)O)NC(=O)[C@H](Cc1c[nH]c2ccccc12)NC(=O)[C@H](C)NC(=O)CCCC[C@@H]1SC[C@@H]2NC(=O)N[C@@H]21)C(C)C)[C@@H](C)O)C(=O)O [LPAP] (Biotin-AWDDSARAAGGQGLHVTAL-OH; C-terminus assumed) | 1 (A450 nm 0-1) |
| CC(C)C[C@H](NC(=O)[C@H](CC(C)C)NC(=O)[C@@H](NC(=O)[C@H](CC(=O)O)NC(=O)CCCC[C@@H]1SC[C@@H]2NC(=O)N[C@@H]21)[C@@H](C)O)C(=O)N[C@@H](CC(C)C)C(=O)N[C@H](C(=O)N[C@@H](CCC(=O)O)C(=O)N[C@@H](CC(N)=O)C(=O)N[C@@H](CCC(=O)O)C(=O)NCC(=O)N[C@@H](CC(=O)O)C(=O)N[C@@H](CCCCN)C(=O)N[C@H](C(=O)N[C@@H](CCC(=O)O)C(=O)N[C@@H](CCC(=O)O)C(=O)N[C@@H](CCC(N)=O)C(=O)N[C@H](C(=O)N[C@@H](CO)C(=O)N[C@@H](Cc1ccc(O)cc1)C(=O)N[C@H](C(=O)O)C(C)C)C(C)C)[C@@H](C)O)[C@@H](C)O [5H2B_HUMAN] (Biotin-DTLLLTENEGDKTEEQVSYV-OH; C-terminus assumed) | 1 (A450 nm 0-1) |
